{
  "source": "paper PMC7265429",
  "about": "“Characterization of a new small-molecule inhibitor of HDAC6 in glioblastoma” (Cell Death & Disease, 2020)",
  "tested_on": "GNS166 cells",
  "experiment": "Microarray whole-transcriptome gene expression analysis",
  "format": "cell-based, human",
  "settings": "DMSO vs SAHA, downregulated",
  "protocol": "Whole-transcriptome analysis was performed from 300 ng of RNA using HuGene-2_0-st-v1 expression array (Affymetrix), which covers 48,226 transcripts. Raw data were first checked for quality purposes through the Affymetrix® Expression Console™ Software v1.4.1 and TAC software v4.0. Then, data were normalized using the Robust Multi-array Average (RMA) and analyzed by Limma tool. Probesets with FDR-corrected p-values smaller than 0.05 were selected. Functional enrichment on Gene Ontology (GO) biological processes was performed on a smaller subset of the differentially expressed genes (corrected p-value < 0.001) by means of Broad Institute GSEA. […] The data that support this study have been deposited in NCBI´s Gene Expression Omnibus and are accessible through GEO series accession number GSE143887.",
  "data": [
    {"smiles": "O=C(CCCCCCC(=O)Nc1ccccc1)NO", "note": "[SAHA, Suberoylanilide hydroxamic acid]", "values": [
      {"measurement": "logFC GTF2IRD2", "setting": "transcript TC0700011518.hg.1", "result": -2.067},
      {"measurement": "logFC GBAS", "setting": "transcript TC0700013363.hg.1", "result": -1.318},
      {"measurement": "logFC NDUFB2", "setting": "transcript TC0700013468.hg.1", "result": -1.3},
      {"measurement": "logFC MSRA", "setting": "transcript TC0800006692.hg.1", "result": -1.45},
      {"measurement": "logFC CYC1", "setting": "transcript TC0800009239.hg.1", "result": -1.06},
      {"measurement": "logFC PBK", "setting": "transcript TC0800009970.hg.1", "result": -1.706},
      {"measurement": "logFC ANK1", "setting": "transcript TC0800010252.hg.1", "result": -2.257},
      {"measurement": "logFC NSMAF", "setting": "transcript TC0800010553.hg.1", "result": -1.838},
      {"measurement": "logFC CPA6", "setting": "transcript TC0800010708.hg.1", "result": -2.501},
      {"measurement": "logFC HAS2", "setting": "transcript TC0800011646.hg.1", "result": -1.946},
      {"measurement": "logFC FXN", "setting": "transcript TC0900007494.hg.1", "result": -0.9868},
      {"measurement": "logFC NEK6", "setting": "transcript TC0900008716.hg.1", "result": -1.139},
      {"measurement": "logFC ARHGEF39", "setting": "transcript TC0900009948.hg.1", "result": -1.156},
      {"measurement": "logFC KIAA0368", "setting": "transcript TC0900011200.hg.1", "result": -1.9364},
      {"measurement": "logFC SUSD1", "setting": "transcript TC0900011220.hg.1", "result": -2.309},
      {"measurement": "logFC PHF19", "setting": "transcript TC0900011388.hg.1", "result": -2.061},
      {"measurement": "logFC CIZ1", "setting": "transcript TC0900011626.hg.1", "result": -1.331},
      {"measurement": "logFC TOR1A", "setting": "transcript TC0900011709.hg.1", "result": -1.605},
      {"measurement": "logFC VAV2", "setting": "transcript TC0900011864.hg.1", "result": -1.105},
      {"measurement": "logFC ANAPC16", "setting": "transcript TC1000007986.hg.1", "result": -1.273},
      {"measurement": "logFC PLEKHS1", "setting": "transcript TC1000008955.hg.1", "result": -2.168},
      {"measurement": "logFC SEPHS1", "setting": "transcript TC1000009844.hg.1", "result": -1.411},
      {"measurement": "logFC EPC1", "setting": "transcript TC1000010256.hg.1", "result": -1.207},
      {"measurement": "logFC PBLD", "setting": "transcript TC1000010843.hg.1", "result": -1.5},
      {"measurement": "logFC DNAJB12", "setting": "transcript TC1000010990.hg.1", "result": -1.539},
      {"measurement": "logFC PRDX3", "setting": "transcript TC1000011993.hg.1", "result": -0.8845},
      {"measurement": "logFC MKI67", "setting": "transcript TC1000012235.hg.1", "result": -1.335},
      {"measurement": "logFC AS3MT", "setting": "transcript TC1000012496.hg.1", "result": -1.5939},
      {"measurement": "logFC PARVA", "setting": "transcript TC1100006879.hg.1", "result": -1.499},
      {"measurement": "logFC CCND1", "setting": "transcript TC1100008236.hg.1", "result": -0.9478},
      {"measurement": "logFC TSKU", "setting": "transcript TC1100008514.hg.1", "result": -1.319},
      {"measurement": "logFC NTM", "setting": "transcript TC1100009561.hg.1", "result": -2.198},
      {"measurement": "logFC IFITM3", "setting": "transcript TC1100009657.hg.1", "result": -1.487},
      {"measurement": "logFC FOSL1", "setting": "transcript TC1100011259.hg.1", "result": -2.603},
      {"measurement": "logFC TRIM22", "setting": "transcript TC1100012957.hg.1", "result": -3.047},
      {"measurement": "logFC CHEK1", "setting": "transcript TC1100013111.hg.1", "result": -0.9424},
      {"measurement": "logFC CDCA5", "setting": "transcript TC1100013184.hg.1", "result": -1.4587},
      {"measurement": "logFC CLCF1", "setting": "transcript TC1100013192.hg.1", "result": -1.898},
      {"measurement": "logFC TSPAN9", "setting": "transcript TC1200006520.hg.1", "result": -1.358},
      {"measurement": "logFC RAD51AP1", "setting": "transcript TC1200006561.hg.1", "result": -1.95},
      {"measurement": "logFC C12orf57", "setting": "transcript TC1200006656.hg.1", "result": -1.605},
      {"measurement": "logFC ESPL1", "setting": "transcript TC1200007707.hg.1", "result": -1.687},
      {"measurement": "logFC IKZF4", "setting": "transcript TC1200007822.hg.1", "result": -1.324},
      {"measurement": "logFC FOXM1", "setting": "transcript TC1200009621.hg.1", "result": -2.01},
      {"measurement": "logFC CDCA3", "setting": "transcript TC1200009759.hg.1", "result": -2.054},
      {"measurement": "logFC MFAP5", "setting": "transcript TC1200009834.hg.1", "result": -1.349},
      {"measurement": "logFC TAS2R10", "setting": "transcript TC1200009919.hg.1", "result": -2.012},
      {"measurement": "logFC MCRS1", "setting": "transcript TC1200010633.hg.1", "result": -1.188},
      {"measurement": "logFC MMAB", "setting": "transcript TC1200011873.hg.1", "result": -1.164},
      {"measurement": "logFC WSB2", "setting": "transcript TC1200012105.hg.1", "result": -1.343},
      {"measurement": "logFC CIT", "setting": "transcript TC1200012143.hg.1", "result": -1.292},
      {"measurement": "logFC TAPBPL", "setting": "transcript TC1200012584.hg.1", "result": -1.336},
      {"measurement": "logFC PRR4", "setting": "transcript TC1200012755.hg.1", "result": -1.713},
      {"measurement": "logFC R3HDM2", "setting": "transcript TC1200012808.hg.1", "result": -1.233},
      {"measurement": "logFC PHF11", "setting": "transcript TC1300007167.hg.1", "result": -1.841},
      {"measurement": "logFC ITGBL1", "setting": "transcript TC1300007870.hg.1", "result": -1.539},
      {"measurement": "logFC DIAPH3", "setting": "transcript TC1300009088.hg.1", "result": -1.66},
      {"measurement": "logFC GAS6", "setting": "transcript TC1300009924.hg.1", "result": -1.149},
      {"measurement": "logFC RHOJ", "setting": "transcript TC1400007404.hg.1", "result": -2.1714},
      {"measurement": "logFC BTBD6", "setting": "transcript TC1400008476.hg.1", "result": -1.003},
      {"measurement": "logFC AJUBA", "setting": "transcript TC1400010715.hg.1", "result": -1.776},
      {"measurement": "logFC ARHGAP11B", "setting": "transcript TC1500006785.hg.1", "result": -1.512},
      {"measurement": "logFC CCNB2", "setting": "transcript TC1500007392.hg.1", "result": -2.179},
      {"measurement": "logFC TPM1", "setting": "transcript TC1500007510.hg.1", "result": -1.243},
      {"measurement": "logFC KIF23", "setting": "transcript TC1500007699.hg.1", "result": -1.664},
      {"measurement": "logFC MAN2A2", "setting": "transcript TC1500008341.hg.1", "result": -1.396},
      {"measurement": "logFC LCTL", "setting": "transcript TC1500009830.hg.1", "result": -1.502},
      {"measurement": "logFC PRC1", "setting": "transcript TC1500010463.hg.1", "result": -1.211},
      {"measurement": "logFC ARHGAP11B", "setting": "transcript TC1500010707.hg.1", "result": -1.7076},
      {"measurement": "logFC C16orf62", "setting": "transcript TC1600007113.hg.1", "result": -1.881},
      {"measurement": "logFC PLK1", "setting": "transcript TC1600007235.hg.1", "result": -1.599},
      {"measurement": "logFC ARL2BP", "setting": "transcript TC1600007992.hg.1", "result": -1.083},
      {"measurement": "logFC SHCBP1", "setting": "transcript TC1600010168.hg.1", "result": -1.56},
      {"measurement": "logFC XAF1", "setting": "transcript TC1700006709.hg.1", "result": -1.919},
      {"measurement": "logFC MPDU1", "setting": "transcript TC1700006758.hg.1", "result": -1.716},
      {"measurement": "logFC GOSR1", "setting": "transcript TC1700007454.hg.1", "result": -1.325},
      {"measurement": "logFC CCL2", "setting": "transcript TC1700007557.hg.1", "result": -1.8857},
      {"measurement": "logFC ABCC3", "setting": "transcript TC1700008263.hg.1", "result": -2.846},
      {"measurement": "logFC BIRC5", "setting": "transcript TC1700009043.hg.1", "result": -1.565},
      {"measurement": "logFC AURKB", "setting": "transcript TC1700009679.hg.1", "result": -1.67},
      {"measurement": "logFC CENPV", "setting": "transcript TC1700009888.hg.1", "result": -1.862},
      {"measurement": "logFC MED24", "setting": "transcript TC1700010599.hg.1", "result": -1.405},
      {"measurement": "logFC TOP2A", "setting": "transcript TC1700010618.hg.1", "result": -1.269},
      {"measurement": "logFC CCDC43", "setting": "transcript TC1700010841.hg.1", "result": -0.9856},
      {"measurement": "logFC ALYREF", "setting": "transcript TC1700012078.hg.1", "result": -1.381},
      {"measurement": "logFC SPAG5", "setting": "transcript TC1700012380.hg.1", "result": -2.042},
      {"measurement": "logFC SERPINB8", "setting": "transcript TC1800009245.hg.1", "result": -1.496},
      {"measurement": "logFC NFIC", "setting": "transcript TC1900006628.hg.1", "result": -1.238},
      {"measurement": "logFC SYDE1", "setting": "transcript TC1900007208.hg.1", "result": -1.288}
    ]}
  ]
}
